The results in this text go back to patent publication US20250289787A1, “HERBICIDAL 2-OXO-NICOTINIC ACID DERIVATIVES” (SYNGENTA CROP PROTECTION AG, priority 2022, published 2025).

Assay type in all cases: in vivo
Common to all, as to set-up: key: 5=81-100%; 4=61-80%; 3=41-60%; 2=21-40%; 1=1-20%; 0=no damage to the plant; -=not tested

Test [1] concerns Amaranthus retoflexus (AMARE). Nature of the test: Pre-emergence test, herbicidal damage. Conditions: 1000 g/ha unless otherwise stated, evaluated after 13 days, five-point scale.
For test [2], the system named is Amaranthus palmeri (AMAPA). Nature of the test: Pre-emergence test, herbicidal damage. The following applies: 1000 g/ha unless otherwise stated, evaluated after 13 days, five-point scale.
In test [3] the test system is Ipomoea hederacea (IPOHE). Nature of the test: Pre-emergence test, herbicidal damage. The following applies: 1000 g/ha unless otherwise stated, evaluated after 13 days, five-point scale.
For test [4], the system named is Setaria faberi (SETFA). Nature of the test: Pre-emergence test, herbicidal damage. The following applies: 1000 g/ha unless otherwise stated, evaluated after 13 days, five-point scale.
Test [5] deals with Echinochloa crus-galli (ECHCG). Nature of the test: Pre-emergence test, herbicidal damage. Conditions: 1000 g/ha unless otherwise stated, evaluated after 13 days, five-point scale.
In test [6] the test system is Ipomoea hederacea (IPOHE). Nature of the test: Post-emergence test, herbicidal damage. The following applies: sprayed after 8 days cultivation, 1000 g/ha unless otherwise stated, evaluated after 13 days, five-point scale. How it is done:
(§1) Seeds of a variety of test species are sown in standard soil in pots Amaranthus palmeri (AMAPA), (Amaranthus retoflexus (AMARE), Echinochloa crus-galli (ECHCG), Zea mays (ZEAMX), Ipomoea 5 hederacea (IPOHE), and Setaria faberi (SETFA). After 8 days cultivation under controlled conditions in a glasshouse (at 24° C./16° C., day/night; 14 hours light; 65% humidity), the plants are sprayed with an aqueous spray solution derived from the formulation of the technical active ingredient in acetone/water (50:50) solution containing 0.5% Tween 20 (polyoxyethelyene sorbitan monolaurate, CAS RN 9005-64-5). Compounds are applied at 1000 g/ha unless otherwise stated. The test plants are then grown in a glasshouse under controlled conditions in a glasshouse (at 24° C./16° C., day/night; 14 hours light; 65% humidity) and watered twice daily. After 13 days the test is evaluated for the percentage damage caused to the plant. The biological activities are shown in the following table on a five-point scale (5=81-100%; 4=61-80%; 3=41-60%; 2=21-40%; 1=1-20%; 0=no damage to the plant; -=not tested).

Test [7] concerns Zea mays (ZEAMX). Nature of the test: Post-emergence test, herbicidal damage. The following applies: sprayed after 8 days cultivation, 1000 g/ha unless otherwise stated, evaluated after 13 days, five-point scale. Here is the method:
as §1

For test [8], the system named is Amaranthus palmeri (AMAPA). Nature of the test: Post-emergence test, herbicidal damage. Conditions: sprayed after 8 days cultivation, 1000 g/ha unless otherwise stated, evaluated after 13 days, five-point scale. How it is done:
as §1

Test [9] deals with Echinochloa crus-galli (ECHCG). Nature of the test: Post-emergence test, herbicidal damage. Conditions: sprayed after 8 days cultivation, 1000 g/ha unless otherwise stated, evaluated after 13 days, five-point scale. How it is done: as §1
Test [10] deals with Amaranthus retoflexus (AMARE). Nature of the test: Post-emergence test, herbicidal damage. The following applies: sprayed after 8 days cultivation, 1000 g/ha unless otherwise stated, evaluated after 13 days, five-point scale. How it is done:
as §1

Test [11] deals with Setaria faberi (SETFA). Nature of the test: Post-emergence test, herbicidal damage. The following applies: sprayed after 8 days cultivation, 1000 g/ha unless otherwise stated, evaluated after 13 days, five-point scale. How it is done:
as §1

For test [12], the system named is Zea mays (ZEAMX). Nature of the test: Pre-emergence test, herbicidal damage. Conditions: 1000 g/ha unless otherwise stated, evaluated after 13 days, five-point scale.

With `Cc1cc(-c2ccc(Cl)c(Cl)c2)c(C(=O)O)c(=O)n1-c1ccc(Cl)cc1F` [Compound 13, 1-(4-chloro-2-fluoro-phenyl)-4-(3,4-dichlorophenyl)-6-methyl-2-oxo-pyridine-3-carboxylic acid], the “percentage damage caused to the plant, AMARE” value in [1] and in [10] was 2 (2=21-40%) each time. The entries for the “percentage damage caused to the plant, AMAPA” value in [2] and in test [8] were 2 (2=21-40%) and 3 (3=41-60%), respectively. The “percentage damage caused to the plant, IPOHE” value in test [3] and in test [6] was 0 each time. The “percentage damage caused to the plant, SEFTA” value in test [4] and in [11] was 0 in each case. Besides, the “percentage damage caused to the plant, ECHCG” value is listed as 2 (2=21-40%) in test [5] and 0 in test [9]. The figures for the “percentage damage caused to the plant, ZEAMX” value in [7] and in test [12] were 1 (1=1-20%) and 0, respectively.

Take `Cc1c(Cl)c(-c2ccc(Cl)c(Cl)c2)c(C(=O)O)c(=O)n1-c1cccc(C(F)(F)F)c1F` [Compound 23, 5-chloro-4-(3,4-dichlorophenyl)-1-[2-fluoro-3-(trifluoromethyl)phenyl]-6-methyl-2-oxo-pyridine-3-carboxylic acid]: the “percentage damage caused to the plant, AMARE” value in test [1] and in test [10] was 4 (4=61-80%) in each case. The “percentage damage caused to the plant, AMAPA” value in test [2] and in test [8] was 4 (4=61-80%) each time. In addition, the “percentage damage caused to the plant, IPOHE” value is 0 in test [3] and 1 (1=1-20%) in test [6]. Further, the “percentage damage caused to the plant, SEFTA” value in test [4] and in test [11] was 1 (1=1-20%) each time. For the same molecule, the “percentage damage caused to the plant, ECHCG” value in [5] and in [9] was 1 (1=1-20%) throughout. Moreover, the “percentage damage caused to the plant, ZEAMX” value in [7] was 1 (1=1-20%); in [12], 0.

For `Cc1c(-c2ccc(Cl)c(Cl)c2)c(C(=O)O)c(=O)n(-c2ccc(Cl)cc2F)c1C` [Compound 26, 1-(4-chloro-2-fluoro-phenyl)-4-(3,4-dichlorophenyl)-5,6-dimethyl-2-oxo-pyridine-3-carboxylic acid], the “percentage damage caused to the plant, AMARE” value in test [1] and in test [10] was 3 (3=41-60%) throughout. Also, the “percentage damage caused to the plant, AMAPA” value in test [2] and in test [8] was 3 (3=41-60%) each time. The figures for the “percentage damage caused to the plant, IPOHE” value in test [3] and in test [6] were 1 (1=1-20%) and 0, respectively. Also, the “percentage damage caused to the plant, SEFTA” value in test [4] and in test [11] was 1 (1=1-20%) throughout. Moreover, the “percentage damage caused to the plant, ECHCG” value in [5] is 0; in test [9], 1 (1=1-20%). Also, the “percentage damage caused to the plant, ZEAMX” value in test [7] and in test [12] was 1 (1=1-20%) in each case.

On to `CCc1c(-c2ccc(Cl)c(Cl)c2)c(C(=O)O)c(=O)n(-c2ccc(Cl)cc2F)c1C` [Compound 35, 1-(4-chloro-2-fluoro-phenyl)-4-(3,4-dichlorophenyl)-5-ethyl-6-methyl-2-oxo-pyridine-3-carboxylic acid], for which the “percentage damage caused to the plant, AMARE” value in test [1] and in [10] was 4 (4=61-80%) each time. The “percentage damage caused to the plant, AMAPA” value in [2] and in test [8] was 4 (4=61-80%) in each case. For the same molecule, the “percentage damage caused to the plant, IPOHE” value in [3] is 0; in test [6] it was 1 (1=1-20%). Further, the “percentage damage caused to the plant, SEFTA” value in test [4] and in test [11] was 0 throughout. Moreover, the “percentage damage caused to the plant, ECHCG” value in test [5] was 1 (1=1-20%); in test [9], 0. For the same molecule, the “percentage damage caused to the plant, ZEAMX” value in [7] and in test [12] was 0 throughout.

As to `Cc1c(Br)c(-c2ccc(Cl)c(Cl)c2)c(C(=O)O)c(=O)n1C` [Compound 5, 5-bromo-4-(3,4-dichlorophenyl)-1,6-dimethyl-2-oxo-pyridine-3-carboxylic acid], the “percentage damage caused to the plant, AMARE” value was 0 in test [1] and 1 (1=1-20%) in test [10]. Also, the “percentage damage caused to the plant, AMAPA” value is given as 0 in test [2] and 1 (1=1-20%) in [8]. The “percentage damage caused to the plant, IPOHE” value in test [3] is recorded as 0; in test [6] it was 1 (1=1-20%). The “percentage damage caused to the plant, SEFTA” value in test [4] and in [11] was 0 each time. The “percentage damage caused to the plant, ECHCG” value in [5] and in [9] was 0 each time. For the same molecule, the “percentage damage caused to the plant, ZEAMX” value is 1 (1=1-20%) in test [7] and 0 in [12].

On to `Cc1cc(-c2ccc(Cl)c(Cl)c2)c(C(=O)O)c(=O)n1-c1cccc(C(F)(F)F)c1` [Compound 15, 4-(3,4-dichlorophenyl)-6-methyl-2-oxo-1-[3-(trifluoromethyl)phenyl]pyridine-3-carboxylic acid], for which the “percentage damage caused to the plant, AMARE” value in test [1] and in test [10] was 4 (4=61-80%) in each case. In addition, the “percentage damage caused to the plant, AMAPA” value in [2] and in [8] was 4 (4=61-80%) each time. In addition, the “percentage damage caused to the plant, IPOHE” value in [3] is recorded as 0; in [6], 1 (1=1-20%). For the same molecule, the “percentage damage caused to the plant, SEFTA” value in [4] and in [11] was 2 (2=21-40%) in each case. The results for the “percentage damage caused to the plant, ECHCG” value in test [5] and in [9] were 0 and 1 (1=1-20%), respectively. For the same molecule, the “percentage damage caused to the plant, ZEAMX” value in test [7] is 1 (1=1-20%); in [12], 0.

Take `C=Cc1c(C)[nH]c(=O)c(C(=O)O)c1-c1ccc(Cl)c(Cl)c1` [Compound 8, 4-(3,4-dichlorophenyl)-6-methyl-2-oxo-5-vinyl-1H-pyridine-3-carboxylic acid]: the “percentage damage caused to the plant, AMARE” value in test [1] was 0; in test [10] it was 1 (1=1-20%). Moreover, the “percentage damage caused to the plant, AMAPA” value in test [2] and in [8] was 1 (1=1-20%) each time. Besides, the “percentage damage caused to the plant, IPOHE” value in test [3] is recorded as 0; in test [6] it was 1 (1=1-20%). Further, the “percentage damage caused to the plant, SEFTA” value in test [4] is 0; in test [11] it was 1 (1=1-20%). The “percentage damage caused to the plant, ECHCG” value in test [5] is on record as 0; in test [9] it was 1 (1=1-20%). For the same molecule, the figures for the “percentage damage caused to the plant, ZEAMX” value in [7] and in test [12] were 1 (1=1-20%) and 0, respectively.
